US5565433A, “Sulfated β-glycolipid derivatives as cell adhesion inhibitors” (Bristol-Myers Squibb Company, priority 1996, dated 1996)

Legend:
P-selectin = biological target: T1, P-selectin (Homo sapiens, UniProt P16109); experiment: HL-60 Cell Binding to P-selectin Rg; type: cell-based; conditions: HL-60 cells binding to P-selectin Rg coated wells
T1 construct: consists of the human lectin domain, the EGF domain, and two complement repeats of the human selectins; made in house
Description: 2. HL-60 Cell Binding to P- and E-Selectin RG
Receptor globulin (Rg) Construction
The chimeric P-and E-selectin receptor globulin (Rg) consists of the human lectin domain, the EGF domain, and two complement repeats of the human selectins fused to the hinge, CH1 and CH2 domains of human IgG1. These proteins were prepared as described by Aruffo, et al., Cell (1991) 67: 35-44; Walz, et al., Science (1990) 250, 1132-1135.
Cell binding assay for Rg
The HL-60 cell line, obtained from the American Type Culture Collection, ATCC No. CCL240, was employed to investigate P-selectin Rg binding. Assays were done in 96-well tissue culture dishes. The wells were first coated with 0.5 ug goat anti-human Fc antiserum overnight, and nonspecific binding sites were blocked by incubation of the wells with 1% nonfat dry milk in phosphate buffered saline (PBS containing 0.9 mM CaCl2 and 0.8 mM MgSO4) for 30 minutes. The Rg was then bound to the anti Fc-coated wells by incubating 50 ng in 50 ul of PBS for two hours. Cells, washed twice and resuspended in PBS to remove traces of medium components, were labeled with 10 uM calcein acetoxy methyl ester for 30 minutes at 3×10^7 cells per ml at room temperature. Serum-containing medium (RPMI with 20% fetal calf serum) was added, and the cells washed, followed by resuspension in PBS and a further spin. The labeled cells, resuspended in PBS, were added to twice washed Rg-containing wells at 200,000 per well. Following a 30 minute incubation with slow shaking, the wells were aspirated and washed three times with PBS to remove unbound cells. To certain wells were added known numbers of cells for determination of a standard curve of fluorescent units per cell. The fluorescence on the plate was quantitated using a fluorescent plate reader. Following subtraction of a blank representing the binding of cells to non-Rg containing wells (<5000 cells), the specific binding to P- or E- selectin was determined.
Inhibitors of cell binding
Test compounds were prepared by dissolution to a final concentration of 20 mg/ml in dimethyl sulfoxide (DMSO), diluted in PBS to 2 mg/ml, and briefly sonicated prior to use. The Rg coated wells were preincubated at room temperature for 15 minutes with the inhibitor, and 200,000 cells were added to yield the final indicated inhibitor concentration in 160 ul of PBS. The data is obtained as percent inhibition of specific binding: [formula] and a plot of dose vs. percent inhibition of Rg binding is generated in which IC50 (μM) is calculated and reported in Table 1.

[1] = tested on: Reverse Passive Arthus Reaction in Rats; experiment: Reverse Passive Arthus Reaction in Rats, myeloperoxidase (MPO); type: in vivo; conditions: rat, IV, % inhibition at 3 mg single dose, 4 hours
Excerpt: 3. Reverse Passive Arthus Reaction in Rats
The reverse passive Arthus reaction in rats is a modification of the method by Mulligan et al., as described in J. Clin. Invest., (1991 ) 88:1396-1406. This is an experimental model in which the interaction of antigen-antibody complexes and complement leads to a severe vasculitis that is associated with edema, induration, erythema and hemorrhage. The interaction between the antigen-antibody complexes and complement leads to a localized influx of neutrophils. These neutrophils release a variety of mediators that are associated with tissue damage and vascular permeability. The localized inflammatory reaction is measured using different techniques i.e., vascular permeability and neutrophil influx which is evaluated both biochemically and microscopically.
Male Sprague Dawley specific pathogen-free rats with jugular vein cannulae (280-320 g, Hill Top Labs, Pa.) are used in these studies. Animals are acclimated for at least 1 day and individually housed in stainless steel cages. The dorsal region of the rats is closely clipped 2 days prior to the experiments and divided into 4 sites on each side of the midline. Prior to all injections the rats are sedated with 0.4 ml per 300 gm rat of ketamine/rompun [1000 mg (10 ml) of ketamine HCL is mixed with 40 mg (2.0 ml) Rompun] administered IP and or inhalation anesthesia with metafane (methoxyflurane).
Bovin Serum Albumin (BSA) and rabbit polyclonal IgG rich in anti-BSA are purchased from Sigma Chemical Co. (St. Louis, Mo.). Radiolabelled ^125 I-BSA (spAct 1-5 μCi/μg) is purchased from Dupont NEN (Boston, Mass.).
Each rat is administered intradermal (ID) injection of (0.4 mg, 0.6 mg and 0.8 mg) anti-BSA in a volume of 100 μl per injection in normal saline. The ID injections are randomized near the mid dorsal region on both sides of the back bone. Immediately after the ID injections of the anti-BSA, the rats are administered intravenous (IV) injections of BSA (10 mg in 1.0 ml) in normal saline containing ^125 I labeled BSA (1 μCi/ml BSA or 5.0 μCi/kg body wt) for quantification of dermal vascular injury. Anti-inflammatory agents such as inhibitors of adhesion molecules of the present invention are administered IV at a single dose of 3 mg immediately after BSA. Four (4) hours after the IV injection of BSA, the rats are anesthetized with metafane and 2 to 3 ml of blood is withdrawn via the cannula into an anticoagulant containing (EDTA or Heparin) tube and plasma separated and saved for neutrophil and albumin quantitation. The rats are killed and the skin surrounding the injection site (15 mm diameter) is punched out and weighed. The skin samples and a fixed volume of plasma (0.1 to 1.0 ml) is analyzed in a gamma-counter for ^125 I content. Skin samples from the contralateral side are processed and analyzed for myeloperoxidase activity (MPO) as a measure of neutrophil accumulation. As needed, samples are also processed for histological evaluation of the reacted sites.
MPO is located in the azurephil granules of polymorphonuclear leukocytes (PMN). Because of its abundance in these cells (5% dry weight), this enzyme is used as a marker for tissue neutrophil content. For tissue MPO content, the method of Bradley, et al., was used as described in J. Invest. […] Change in absorbance at 450 nm was measured at room temperature using a Vmax kinetic plate reader (Molecular Devices, Pale Alto, Calif., USA). Percent inhibition of the test compound at 3 mg dose was determined as follows: [formula] […]

T1 sequence (P16109 with tags, fused parts or gaps limits assumed): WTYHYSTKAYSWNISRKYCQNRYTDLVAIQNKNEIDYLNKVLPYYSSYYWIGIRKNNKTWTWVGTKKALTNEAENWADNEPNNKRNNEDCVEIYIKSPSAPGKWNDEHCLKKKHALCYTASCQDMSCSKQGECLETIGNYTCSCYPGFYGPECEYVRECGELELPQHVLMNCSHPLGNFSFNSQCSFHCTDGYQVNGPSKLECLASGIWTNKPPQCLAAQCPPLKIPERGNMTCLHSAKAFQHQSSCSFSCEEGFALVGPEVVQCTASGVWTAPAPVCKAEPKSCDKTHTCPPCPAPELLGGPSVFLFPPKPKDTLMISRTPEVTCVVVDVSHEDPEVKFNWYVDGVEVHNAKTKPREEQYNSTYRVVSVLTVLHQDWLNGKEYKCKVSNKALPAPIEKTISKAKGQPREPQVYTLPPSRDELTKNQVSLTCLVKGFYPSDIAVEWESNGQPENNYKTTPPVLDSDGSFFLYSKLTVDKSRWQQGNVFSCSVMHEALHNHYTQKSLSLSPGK

| SMILES | IC50 (P-selectin) | RPA MPO % Inhib. [1] |
| --- | --- | --- |
| CCCCCCCCCCCCC/C=C/[C@@H](O)[C@H](CO[C@@H]1O[C@H](COS(=O)(=O)O)[C@H](OS(=O)(=O)O)[C@H](O)[C@H]1O)NC(=O)CCCCCCCCCCCCCCC [Example 2, (2S,3R,4E)-3-Hydroxy-2-hexadecanoylamino-1-[4,6-di-O-(sodiumoxysulfonyl)-β-D-galactopyranosyloxy]-4-octadecene] | 39 µM | 33.5% |
| CCCCCCCC/C=C\CCCCCCCCCCCCCC(=O)N[C@@H](CO[C@@H]1O[C@H](COS(=O)(=O)O)[C@H](OC(=O)c2ccccc2)[C@H](OC(=O)c2ccccc2)[C@H]1OS(=O)(=O)O)[C@@H](/C=C/CCCCCCCCCCCCC)OC(=O)c1ccccc1 [Example 7, (2S,3R,4E)-3-Benzoyloxy-1-[3,4-di-O-benzoyl-2,6-di-O-(sodiumoxysulfonyl)-β-D-galactopyranosyloxy]-2-(cis-15-tetracosenoylamino)-4-octadecene] | 11 µM | 46% |
